Results as given in US9315546B2, “Growth hormone secretatogue receptor antagonists and uses thereof” (The Administrators of the Tulane Educational Fund, priority 2010, dated 2016).
Where a SMILES comes first, the peptide text is derived from it. [ ]: non-standard residue; d: D form. The star is where a group is joined. Octanoyl = CCCCCCCC(=O)*; Dap = NC[C@H](N)C(=O)O

Assays:
GOAT = target: T1, GOAT (Homo sapiens, UniProt Q96T53); assay: Acyl Transferase activity of GOAT in vitro; format: biochemical
T1 sequence (Q96T53 1-435): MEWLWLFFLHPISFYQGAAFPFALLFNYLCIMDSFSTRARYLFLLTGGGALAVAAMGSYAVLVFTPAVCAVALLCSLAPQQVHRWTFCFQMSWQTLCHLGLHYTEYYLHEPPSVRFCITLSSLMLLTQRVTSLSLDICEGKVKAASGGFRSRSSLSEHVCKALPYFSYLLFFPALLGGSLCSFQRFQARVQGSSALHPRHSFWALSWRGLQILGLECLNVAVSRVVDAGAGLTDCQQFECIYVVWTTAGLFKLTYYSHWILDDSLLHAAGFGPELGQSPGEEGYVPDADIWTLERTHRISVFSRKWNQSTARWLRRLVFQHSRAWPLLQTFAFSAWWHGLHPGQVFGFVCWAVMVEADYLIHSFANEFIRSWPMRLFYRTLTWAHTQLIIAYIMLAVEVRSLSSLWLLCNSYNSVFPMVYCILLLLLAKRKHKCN

[1] = target: T2, hypothalamic ghrelin receptor (Rattus norvegicus, UniProt O08725); assay: Food intake and body weight change after icv ghrelin analogs in adult male rats; format: in vivo; set-up: from tissue; host or cells: whole animal (adult male rats); details: ghrelin analog 10 μg icv; for body weight gain: change over 24 h; for (cumulative) food intake: monitored hourly over 5 h
Description: (§1) In vivo effects were measured on spontaneous and ghrelin-stimulated GH secrtion over a 6-h sampling period, and food intake monitored hourly over a 5-h period and body weight change over 24 h.

[2] = target: T2, hypothalamic ghrelin receptor; assay: Spontaneous and ghrelin-stimulated GH secretion after icv ghrelin analogs in adult male rats; format: in vivo; set-up: from tissue; host or cells: whole animal (adult male rats); details: for spontaneous growth hormone secretion / plasma GH levels: ghrelin analog 10 μg icv, 6-h sampling
Description: as §1

[3] = listed as GMA{Dap^3Oct}ghrelinNH2 1-9
[4] = listed as Gly-Met-Ala-Gly-Ser-(Dap-Oct)-Phe-Leu-Ser-Pro-Glu-His-NH2

T2 sequence (O08725 whole entry): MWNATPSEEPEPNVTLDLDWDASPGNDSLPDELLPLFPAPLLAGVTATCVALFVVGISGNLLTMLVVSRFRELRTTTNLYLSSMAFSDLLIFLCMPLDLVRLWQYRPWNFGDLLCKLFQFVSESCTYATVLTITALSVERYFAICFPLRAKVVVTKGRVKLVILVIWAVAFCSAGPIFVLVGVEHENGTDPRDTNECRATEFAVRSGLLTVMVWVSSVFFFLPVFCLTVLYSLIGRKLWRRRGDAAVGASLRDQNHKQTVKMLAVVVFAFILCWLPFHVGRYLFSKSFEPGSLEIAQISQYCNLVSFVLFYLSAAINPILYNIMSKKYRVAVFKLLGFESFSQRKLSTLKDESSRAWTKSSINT

- inhibition of the Acyl Transferase activity of GOAT (GOAT): ineffective
- decrease in mean plasma GH levels compared with controls ([2]; central administration): 3-to-4 fold
- spontaneous growth hormone secretion / plasma GH levels [2]: inhibited growth hormone secretion
- spontaneous growth hormone secretion / plasma GH levels ([2]; listed as GMA duodecapeptide ghrelin analog): inhibitory activity
- spontaneous growth hormone secretion / plasma GH levels [2, 4]: inhibited
- stimulatory action of ghrelin on GH release after pretreatment ([2]; pretreatment with analog): blocked
SMILES: CCCCCCCC(=O)NC[C@H](NC(=O)[C@H](CO)NC(=O)CNC(=O)[C@H](C)NC(=O)[C@H](CCSC)NC(=O)CN)C(=O)N[C@@H](Cc1ccccc1)C(=O)N[C@@H](CC(C)C)C(=O)N[C@@H](CO)C(=O)N1CCC[C@H]1C(=O)N[C@@H](CCC(=O)O)C(=O)N[C@@H](Cc1c[nH]cn1)C(N)=O [#3, Gly-Met-Ala-Gly-Ser-(Dap-Oct)-Phe-Leu-Ser-Pro-Glu-His-NH2] (H-GMAGS[Dap](Octanoyl)FLSPEH-NH2; N-terminus assumed)
- body weight gain [1, 3]: inhibits
- body weight gain ([1]; listed as duodecapeptide): effective
- (cumulative) food intake [1]: inhibited food intake
- (cumulative) food intake [1, 3]: inhibits
- (cumulative) food intake [1, 4]: reduced
- (cumulative) food intake ([1]; listed as duodecapeptide): effective
